Measurements published in paper PMC11594329, “Development of LAT1-Selective Nuclear Medicine Therapeutics Using Astatine-211” (International Journal of Molecular Sciences, 2024).

Legend:
[1] = Urinary and fecal excretion in PANC-1 tumor bearing mice; type: in vivo
Description: Urinary excretion levels were also examined (Supplementary Table S1). Comparing the D-isomer and L isomer of ^211At-AAMT-O-Me from ICR mice, the D-isomer; 24.84 ± 13.03% ID, L-isomer; 33.69 ± 1.26% ID at 1 h after injection. D-isomer; 71.36 ± 4.67% ID, L-isomer; 23.99 ± 2.40% ID at 3 h after injection. From PANC-1 tumor bearing mice, D-isomer; 35.24 ± 8.70% ID, L-isomer; 20.40 ± 0.76% ID at 1 h after injection. D-isomer; 47.38 ± 3.19% ID, L-isomer; 3.23 ± 0.67% ID at 3 h after injection. In tumor-bearing models, the amount of excretion was smaller than that in normal mice. We have already reported that, in the presence of target cancer tissue for administered drugs, retention in the cancer tissue results in reduced excretion compared with normal animals. […] The same was also observed for feces, but very little was excreted in the feces. The results were as follows: from ICR mice, D-isomer; 0.06 ± 0.03% ID, L-isomer; 0.004 ± 0.003% ID at 1 h after injection. D-isomer; 0.02 ± 0.01% ID, L-isomer; 0.02 ± 0.01% ID at 3 h after injection. From PANC-1 tumor bearing mice, D-isomer; 0.25 ± 0.12% ID, L-isomer; 0.002 ± 0.001% ID at 1 h after injection. D-isomer; 0.75 ± 0.46% ID; L-isomer; 0.07 ± 0.03% ID at 3 h after injection.
(§1) BALB/c nu/nu mice (male, 5 weeks old) were purchased from Japan SLC (Shizuoka, Japan) and subcutaneously transplanted at a density of 1 × 10^7 cells/mouse. PANC-1 cells that reached the logarithmic growth phase were transplanted subcutaneously by mixing a 1 × 10^8 cells/mL cell suspension with an equivalent volume of Matrigel (Corning, Corning, NY, USA) to obtain 1 × 10^7 cells per mouse. Experiments were performed after the size of the transplanted tumor had exceeded 50 mm^3. The doses in the distribution experiments were as follows: ^211At-AAMT-OH-L (0.501 ± 0.011 MBq/mouse, 19.91 ± 0.59 g, n = 3) and ^211At-AAMT-O-Me-L (0.384 ± 0.003 MBq/mouse, 19.18 ± 0.38 g, n = 6 for Table 3), ^211At-AAMT-O-Me-L (158.10 ± 2.94 kBq/mouse, 19.27 ± 0.64 g, n = 6) and ^211At-AAMT-O-Me-D (135.08 ± 2.35 kBq/mouse, 18.64 ± 0.97 g, n = 6), ^211At-AAMT-O-Et-L (0.682 ± 0.011 MBq/mouse, 20.25 ± 1.41 g, n = 6), ^211At-AAMT-O-Pr-L (0.927 ± 0.020 MBq/mouse, 21.74 ± 0.37 g, n = 6).

PANC-1 tumor model = assay: Tissue distribution in nude mice (PANC-1 tumor model); type: in vivo, BALB/c nu/nu mice
Description: as §1

[2] = nude mice (PANC-1 tumor model), 1 h after injection
[3] = nude mice (PANC-1 tumor model), 3 h after injection
[4] = nude mice (PANC-1 tumor model), 24 h after injection
[5] = nude mice (PANC-1 tumor model), after 24 h

COc1ccc(C[C@@](C)(N)C(=O)O)cc1[211At] [^211At-AAMT-O-Me-D]
Excretion in feces ([1]; 1 h after injection): 0.25 ± 0.12 % ID | Urinary excretion ([1]; 1 h after injection): 35.24 ± 8.70 % ID | Excretion in feces ([1]; 3 h after injection): 0.75 ± 0.46 % ID | Urinary excretion ([1]; 3 h after injection): 47.38 ± 3.19 % ID | Tissue distribution, Bladder (PANC-1 tumor model; [2]): 1.76 ± 1.64 %ID/g | Tissue distribution, Blood (PANC-1 tumor model; [2]): 3.52 ± 1.89 %ID/g | Tissue distribution, Bone (PANC-1 tumor model; [2]): 0.30 ± 0.12 %ID/g | Tissue distribution, Brain (PANC-1 tumor model; [2]): 0.15 ± 0.01 %ID/g | Tissue distribution, Cecum (PANC-1 tumor model; [2]): 2.35 ± 1.73 %ID/g | Tissue distribution, Colon (PANC-1 tumor model; [2]): 0.85 ± 0.49 %ID/g | Tissue distribution, Heart (PANC-1 tumor model; [2]): 0.53 ± 0.08 %ID/g | Tissue distribution, Kidney (PANC-1 tumor model; [2]): 1.40 ± 0.56 %ID/g | Tissue distribution, Liver (PANC-1 tumor model; [2]): 3.09 ± 0.39 %ID/g | Tissue distribution, Lung (PANC-1 tumor model; [2]): 2.24 ± 0.89 %ID/g | Tissue distribution, Pancreas (PANC-1 tumor model; [2]): 0.61 ± 0.44 %ID/g | Tissue distribution, Salivary glands (PANC-1 tumor model; [2]): 0.30 ± 0.10 %ID/g | Tissue distribution, Small intestine (PANC-1 tumor model; [2]): 2.05 ± 0.81 %ID/g | Tissue distribution, Spleen (PANC-1 tumor model; [2]): 1.70 ± 0.74 %ID/g | Tissue distribution, Stomach (PANC-1 tumor model; [2]): 1.43 ± 0.94 %ID/g | Tissue distribution, Testis (PANC-1 tumor model; [2]): 1.05 ± 0.77 %ID/g | Tissue distribution, Thyroid (PANC-1 tumor model; [2]): 0.14 ± 0.04 %ID/g | Tissue distribution, Tumor (PANC-1 tumor model; [2]): 3.25 ± 1.39 %ID/g | Tissue distribution, Bladder (PANC-1 tumor model; [3]): 1.04 ± 0.97 %ID/g | Tissue distribution, Blood (PANC-1 tumor model; [3]): 1.92 ± 1.16 %ID/g | Tissue distribution, Bone (PANC-1 tumor model; [3]): 0.26 ± 0.12 %ID/g | Tissue distribution, Brain (PANC-1 tumor model; [3]): 0.10 ± 0.03 %ID/g | Tissue distribution, Cecum (PANC-1 tumor model; [3]): 1.32 ± 0.96 %ID/g | Tissue distribution, Colon (PANC-1 tumor model; [3]): 0.40 ± 0.25 %ID/g | Tissue distribution, Heart (PANC-1 tumor model; [3]): 0.37 ± 0.03 %ID/g | Tissue distribution, Kidney (PANC-1 tumor model; [3]): 1.54 ± 0.86 %ID/g | Tissue distribution, Liver (PANC-1 tumor model; [3]): 2.60 ± 0.07 %ID/g | Tissue distribution, Lung (PANC-1 tumor model; [3]): 1.27 ± 0.40 %ID/g | Tissue distribution, Pancreas (PANC-1 tumor model; [3]): 0.48 ± 0.35 %ID/g | Tissue distribution, Salivary glands (PANC-1 tumor model; [3]): 0.33 ± 0.13 %ID/g | Tissue distribution, Small intestine (PANC-1 tumor model; [3]): 1.48 ± 0.37 %ID/g | Tissue distribution, Spleen (PANC-1 tumor model; [3]): 1.81 ± 1.19 %ID/g | Tissue distribution, Stomach (PANC-1 tumor model; [3]): 1.29 ± 0.77 %ID/g | Tissue distribution, Testis (PANC-1 tumor model; [3]): 1.64 ± 1.26 %ID/g | Tissue distribution, Thyroid (PANC-1 tumor model; [3]): 0.14 ± 0.06 %ID/g | Tissue distribution, Tumor (PANC-1 tumor model; [3]): 3.84 ± 2.10 %ID/g

COc1ccc(C[C@](C)(N)C(=O)O)cc1[211At] [^211At-AAMT-O-Me-L, (S)-2-amino-3-(3-(astato-^211At)-4-methoxyphenyl)-2-methylpropanic acid]
Excretion in feces ([1]; 1 h after injection): 0.002 ± 0.001 % ID | Urinary excretion ([1]; 1 h after injection): 20.40 ± 0.76 % ID | Excretion in feces ([1]; 3 h after injection): 0.07 ± 0.03 % ID | Urinary excretion ([1]; 3 h after injection): 3.23 ± 0.67 % ID | Tissue distribution, Bladder (PANC-1 tumor model; [2]): 0.06 ± 0.00 %ID/g | Tissue distribution, Blood (PANC-1 tumor model; [2]): 7.85 ± 1.17 %ID/g | Tissue distribution, Bone (PANC-1 tumor model; [2]): 0.68 ± 1.27 %ID/g | Tissue distribution, Brain (PANC-1 tumor model; [2]): 0.46 ± 0.00 %ID/g | Tissue distribution, Cecum (PANC-1 tumor model; [2]): 0.46 ± 0.05 %ID/g | Tissue distribution, Colon (PANC-1 tumor model; [2]): 1.14 ± 0.27 %ID/g | Tissue distribution, Heart (PANC-1 tumor model; [2]): 0.86 ± 0.04 %ID/g | Tissue distribution, Kidney (PANC-1 tumor model; [2]): 3.56 ± 0.09 %ID/g | Tissue distribution, Liver (PANC-1 tumor model; [2]): 4.92 ± 0.24 %ID/g | Tissue distribution, Lung (PANC-1 tumor model; [2]): 5.16 ± 0.11 %ID/g | Tissue distribution, Pancreas (PANC-1 tumor model; [2]): 0.58 ± 0.01 %ID/g | Tissue distribution, Salivary glands (PANC-1 tumor model; [2]): 0.58 ± 0.05 %ID/g | Tissue distribution, Small intestine (PANC-1 tumor model; [2]): 3.40 ± 0.36 %ID/g | Tissue distribution, Spleen (PANC-1 tumor model; [2]): 4.34 ± 0.79 %ID/g | Tissue distribution, Stomach (PANC-1 tumor model; [2]): 1.32 ± 0.06 %ID/g | Tissue distribution, Testis (PANC-1 tumor model; [2]): 0.55 ± 0.02 %ID/g | Tissue distribution, Thyroid (PANC-1 tumor model; [2]): 0.20 ± 0.02 %ID/g | Tissue distribution, Tumor (PANC-1 tumor model; [2]): 7.83 ± 0.30 %ID/g | Tissue distribution, Bladder (PANC-1 tumor model; [3]): 0.09 ± 0.01 %ID/g | Tissue distribution, Blood (PANC-1 tumor model; [3]): 10.38 ± 2.28 %ID/g | Tissue distribution, Bone (PANC-1 tumor model; [3]): 0.51 ± 1.35 %ID/g | Tissue distribution, Brain (PANC-1 tumor model; [3]): 0.29 ± 0.01 %ID/g | Tissue distribution, Cecum (PANC-1 tumor model; [3]): 0.43 ± 0.16 %ID/g | Tissue distribution, Colon (PANC-1 tumor model; [3]): 0.68 ± 0.23 %ID/g | Tissue distribution, Heart (PANC-1 tumor model; [3]): 0.76 ± 0.07 %ID/g | Tissue distribution, Kidney (PANC-1 tumor model; [3]): 2.29 ± 0.07 %ID/g | Tissue distribution, Liver (PANC-1 tumor model; [3]): 4.62 ± 0.20 %ID/g | Tissue distribution, Lung (PANC-1 tumor model; [3]): 5.10 ± 0.42 %ID/g | Tissue distribution, Pancreas (PANC-1 tumor model; [3]): 0.36 ± 0.10 %ID/g | Tissue distribution, Salivary glands (PANC-1 tumor model; [3]): 0.78 ± 0.18 %ID/g | Tissue distribution, Small intestine (PANC-1 tumor model; [3]): 2.50 ± 0.42 %ID/g | Tissue distribution, Spleen (PANC-1 tumor model; [3]): 3.97 ± 0.59 %ID/g | Tissue distribution, Stomach (PANC-1 tumor model; [3]): 1.31 ± 0.32 %ID/g | Tissue distribution, Testis (PANC-1 tumor model; [3]): 0.55 ± 0.11 %ID/g | Tissue distribution, Thyroid (PANC-1 tumor model; [3]): 0.23 ± 0.04 %ID/g | Tissue distribution, Tumor (PANC-1 tumor model; [3]): 10.29 ± 0.88 %ID/g | Tissue distribution, Bladder (PANC-1 tumor model; [4]): 0.55 ± 0.13 %ID/g | Tissue distribution, Blood (PANC-1 tumor model; [4]): 0.88 ± 0.23 %ID/g | Tissue distribution, Bone (PANC-1 tumor model; [4]): 0.75 ± 0.18 %ID/g | Tissue distribution, Brain (PANC-1 tumor model; [4]): 0.13 ± 0.04 %ID/g | Tissue distribution, Cecum (PANC-1 tumor model; [4]): 2.09 ± 0.41 %ID/g | Tissue distribution, Colon (PANC-1 tumor model; [4]): 1.69 ± 0.15 %ID/g | Tissue distribution, Heart (PANC-1 tumor model; [4]): 1.29 ± 0.42 %ID/g | Tissue distribution, Kidney (PANC-1 tumor model; [4]): 1.67 ± 0.49 %ID/g | Tissue distribution, Liver (PANC-1 tumor model; [4]): 0.92 ± 0.15 %ID/g | Tissue distribution, Lung (PANC-1 tumor model; [4]): 4.43 ± 1.76 %ID/g | Tissue distribution, Pancreas (PANC-1 tumor model; [4]): 0.59 ± 0.17 %ID/g | Tissue distribution, Salivary glands (PANC-1 tumor model; [4]): 13.65 ± 5.31 %ID/g | Tissue distribution, Small intestine (PANC-1 tumor model; [4]): 1.49 ± 0.29 %ID/g | Tissue distribution, Spleen (PANC-1 tumor model; [4]): 3.12 ± 2.06 %ID/g | Tissue distribution, Stomach (PANC-1 tumor model; [4]): 8.89 ± 2.65 %ID/g | Tissue distribution, Testis (PANC-1 tumor model; [4]): 1.18 ± 0.25 %ID/g | Tissue distribution, Thyroid (PANC-1 tumor model; [4]): 9.37 ± 3.33 %ID/g | Tissue distribution, Tumor (PANC-1 tumor model; [4]): 1.86 ± 0.39 %ID/g | Accumulation remaining in tumors relative to ^211At-AAMT-OH-L (PANC-1 tumor model; [5]): 2.6 times | Blood intensity relative to ^211At-AAMT-OH-L (PANC-1 tumor model; [5]): 22 times | Increase of blood intensity in tumor-bearing mice compared with normal animals (PANC-1 tumor model; tumor-bearing mice versus ICR mice): 5 fold
